Measured values from PubChem BioAssay (NCI).
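48-hour exposure; five concentrations; linearly interpolated endpoints. TGI denotes the concentration required for complete inhibition of growth.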

Assays:
Assay in all cases: inhibition of tumour cell growth, NCI panel, 48 h
ACHN renal = system: ACHN renal
HCT-116 colon = system: HCT-116 colon
HL-60(TB) leukemia = system: HL-60(TB) leukemia
HT29 colon = system: HT29 colon
KM12 colon = system: KM12 colon
MDA-MB-231 breast = system: MDA-MB-231 breast
NCI-H23 lung = system: NCI-H23 lung
NCI/ADR-RES ovarian = system: NCI/ADR-RES ovarian
OVCAR-4 ovarian = system: OVCAR-4 ovarian
RPMI-8226 leukemia = system: RPMI-8226 leukemia
RXF 393 renal = system: RXF 393 renal
SK-MEL-2 melanoma = system: SK-MEL-2 melanoma
SK-MEL-28 melanoma = system: SK-MEL-28 melanoma
SR leukemia = system: SR leukemia

Row | Structure (SMILES) | TGI (ACHN renal) [µM] | TGI (HCT-116 colon) [µM] | TGI (HL-60(TB) leukemia) [µM] | TGI (HT29 colon) [µM] | TGI (KM12 colon) [µM] | TGI (MDA-MB-231 breast) [µM] | TGI (NCI-H23 lung) [µM] | TGI (NCI/ADR-RES ovarian) [µM] | TGI (OVCAR-4 ovarian) [µM] | TGI (RPMI-8226 leukemia) [µM] | TGI (RXF 393 renal) [µM] | TGI (SK-MEL-2 melanoma) [µM] | TGI (SK-MEL-28 melanoma) [µM] | TGI (SR leukemia) [µM]
1 | NC(C(F)(F)F)(C(F)(F)F)P(=O)(c1ccccc1)c1ccccc1 | > 100 | > 100 | > 100 | > 100 | > 100 | > 100 | > 100 | > 100 | > 100 | > 100 | > 100 | > 100 | > 100 | > 100
2 | N#CC1=C(C#N)/C(=C(\C#N)C(C#N)C#N)N=C1N | > 100 | > 100 | 39.1 | 62.1 | > 100 | > 100 | > 100 | > 100 | > 100 | > 81.3 | > 100 | 31.6 | 52 | 66.7
3 | Cc1ccc(S(=O)(=O)NC(=O)NCC(=O)NCC(=O)O)cc1 | > 100 | > 100 | > 100 | > 100 | > 100 | > 100 | > 100 | > 100 | > 100 | > 100 | > 100 | > 100 | > 100 | > 100
4 | CC1(C)OC(=O)C(C)(C)OC1=O | > 100 | > 100 | > 100 | > 100 | > 100 | > 100 | > 100 | > 100 | > 100 | > 100 | > 100 | > 100 | > 100 | > 100
5 | C#CCCOC1(OC)N=NC(C)(C)O1 (configuration not stated) | > 100 | > 100 | > 100 | > 100 | > 100 | > 100 | > 100 | > 100 | > 100 | > 100 | > 100 | > 100 | > 100 | > 100
6 | CC1=NN2C(=O)CC(=O)N=C2S1 | > 100 | > 100 | > 100 | > 100 | > 100 | > 100 | > 100 | > 100 | > 100 | > 100 | > 100 | > 100 | > 100 | > 100
7 | c1ccc([C@@H]2N[C@@]3(CO[Si](c4ccccc4)(c4ccccc4)c4ccccc4)CC[C@H]4CN[C@@H]2[C@H]43)cc1 | 26.6 | 11.9 | 21.3 | 7.17 | 12.4 | 25.9 | 30.5 | 32.4 | 29.3 | 13.8 | 16.9 | 35.3 | 35.6 | > 100
8 | COC(=O)C(/C(=N/N)C(=O)Nc1cc(Cl)c(Cl)cc1Cl)c1nc2ccc(Cl)cc2[nH]c1=O (configuration not stated) | > 100 | > 100 | > 100 | > 100 | > 100 | > 100 | > 100 | > 100 | > 100 | > 100 | > 100 | > 100 | > 100 | > 100
